The values below come from ChEMBL document CHEMBL1201862, “PubChem BioAssay data set” (2004).

For test [1], the target named is T1, Caspase-3 (Homo sapiens, UniProt P42574).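 Note: Dose-response selectivity test against caspase-3 for candidate inhibitors of sentrin-specific proteases (SENPs).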
T1 sequence (P42574 whole entry): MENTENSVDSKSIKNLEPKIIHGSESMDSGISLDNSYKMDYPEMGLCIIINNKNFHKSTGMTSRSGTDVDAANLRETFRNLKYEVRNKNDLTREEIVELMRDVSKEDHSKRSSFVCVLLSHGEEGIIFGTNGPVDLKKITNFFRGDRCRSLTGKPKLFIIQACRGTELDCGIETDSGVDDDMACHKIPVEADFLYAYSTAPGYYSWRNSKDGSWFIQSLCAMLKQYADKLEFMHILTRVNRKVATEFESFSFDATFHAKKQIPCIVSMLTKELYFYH
It counts as functional.

For test [2], the target named is T2, Sentrin-specific protease 6 (Homo sapiens, UniProt Q9GZR1).
T2 sequence (Q9GZR1 whole entry): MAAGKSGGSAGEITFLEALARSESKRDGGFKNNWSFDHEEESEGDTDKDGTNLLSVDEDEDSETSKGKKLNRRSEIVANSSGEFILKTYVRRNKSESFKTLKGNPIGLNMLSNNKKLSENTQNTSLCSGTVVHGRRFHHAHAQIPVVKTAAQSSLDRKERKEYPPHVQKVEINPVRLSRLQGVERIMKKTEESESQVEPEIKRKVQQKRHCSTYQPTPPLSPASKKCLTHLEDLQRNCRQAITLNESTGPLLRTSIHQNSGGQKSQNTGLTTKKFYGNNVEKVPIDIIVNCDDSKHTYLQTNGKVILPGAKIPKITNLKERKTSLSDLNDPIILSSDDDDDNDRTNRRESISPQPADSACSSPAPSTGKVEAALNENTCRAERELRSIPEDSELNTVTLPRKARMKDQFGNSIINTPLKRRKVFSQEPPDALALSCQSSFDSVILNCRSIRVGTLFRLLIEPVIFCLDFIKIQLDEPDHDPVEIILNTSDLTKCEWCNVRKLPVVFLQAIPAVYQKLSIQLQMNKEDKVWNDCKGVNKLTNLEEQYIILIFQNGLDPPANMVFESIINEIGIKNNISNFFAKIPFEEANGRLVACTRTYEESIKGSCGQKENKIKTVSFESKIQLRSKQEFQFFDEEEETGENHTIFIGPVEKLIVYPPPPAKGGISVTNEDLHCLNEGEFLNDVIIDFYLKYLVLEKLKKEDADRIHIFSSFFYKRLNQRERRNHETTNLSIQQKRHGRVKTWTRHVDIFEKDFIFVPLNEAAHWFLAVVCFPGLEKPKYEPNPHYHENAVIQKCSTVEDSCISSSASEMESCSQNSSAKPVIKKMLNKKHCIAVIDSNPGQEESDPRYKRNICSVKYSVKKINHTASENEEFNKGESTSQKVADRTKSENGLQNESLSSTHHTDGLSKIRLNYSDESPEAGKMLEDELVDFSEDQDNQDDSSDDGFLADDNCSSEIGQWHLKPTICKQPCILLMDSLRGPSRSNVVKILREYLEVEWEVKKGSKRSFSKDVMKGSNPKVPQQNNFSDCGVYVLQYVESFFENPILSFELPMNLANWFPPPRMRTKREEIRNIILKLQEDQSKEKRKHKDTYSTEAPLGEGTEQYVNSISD
The test can be described thus: SAR Analysis of small molecule inhibitors of Sentrin-specific protease 6 (SENP6) using a Luminescent assay. [Related pubchem assays (depositor defined):AID2582, AID2599]. It counts as functional.

Test [3] has as its target T3, Sentrin-specific protease 7 (Homo sapiens, UniProt Q9BQF6).
T3 sequence (Q9BQF6 whole entry): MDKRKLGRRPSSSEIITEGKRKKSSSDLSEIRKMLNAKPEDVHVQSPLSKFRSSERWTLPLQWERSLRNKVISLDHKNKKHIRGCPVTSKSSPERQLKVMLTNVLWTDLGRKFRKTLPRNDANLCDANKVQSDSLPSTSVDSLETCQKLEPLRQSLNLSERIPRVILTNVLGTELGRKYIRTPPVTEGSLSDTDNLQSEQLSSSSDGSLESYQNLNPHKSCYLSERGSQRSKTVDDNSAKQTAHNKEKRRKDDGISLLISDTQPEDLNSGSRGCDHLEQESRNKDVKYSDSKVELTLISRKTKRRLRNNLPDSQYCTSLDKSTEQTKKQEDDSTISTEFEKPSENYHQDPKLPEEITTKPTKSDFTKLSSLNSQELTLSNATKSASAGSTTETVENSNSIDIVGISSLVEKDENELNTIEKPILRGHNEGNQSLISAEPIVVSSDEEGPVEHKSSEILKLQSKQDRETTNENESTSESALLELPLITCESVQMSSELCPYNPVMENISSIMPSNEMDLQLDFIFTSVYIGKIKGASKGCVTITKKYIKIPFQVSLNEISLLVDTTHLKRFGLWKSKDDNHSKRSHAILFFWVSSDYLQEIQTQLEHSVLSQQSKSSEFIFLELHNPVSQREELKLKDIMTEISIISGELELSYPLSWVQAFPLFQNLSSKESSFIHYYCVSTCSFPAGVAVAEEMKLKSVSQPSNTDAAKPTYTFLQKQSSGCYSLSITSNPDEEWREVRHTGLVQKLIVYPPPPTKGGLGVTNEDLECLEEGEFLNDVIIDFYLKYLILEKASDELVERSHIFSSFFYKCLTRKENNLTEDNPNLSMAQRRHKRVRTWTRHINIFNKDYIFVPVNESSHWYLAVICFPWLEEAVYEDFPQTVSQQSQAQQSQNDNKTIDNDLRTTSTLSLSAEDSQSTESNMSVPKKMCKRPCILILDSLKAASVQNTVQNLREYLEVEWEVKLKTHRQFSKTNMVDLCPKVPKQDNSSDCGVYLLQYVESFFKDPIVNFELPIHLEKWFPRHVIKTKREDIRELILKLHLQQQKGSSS
The test can be described thus: inhibition of human SENP7 cleavage activity – biochemical, luminescence, SAR follow-up (AID 504497). The test is classed as functional.

Test [4] has as its system Streptococcus sp. 'group A'. The test can be described thus: Streptococcus pyogenes SK(-)GAS viability under kanamycin – luminescence, BacTiterGlo, confirmation, counter-screen for streptokinase expression inhibitor project, dose response (AID 1900). It counts as functional, organism-based.
The target in test [5] is Delta-type opioid receptor (Homo sapiens, UniProt P41143). The experiment in a line: Counterscreen for agonists of heterodimerization of the mu 1 (OPRM1) and delta 1 (OPRD1) opioid receptors: Luminescence-based cell-based high throughput dose response assay to identify agonists of OPRD1 homodimerization. [Related pubchem assays (depositor defined):AID504326, AID504355, AID504692, AID504904, AID504905]. It counts as functional.

In test [6] the target is Mu-type opioid receptor (Homo sapiens, UniProt P35372). The experiment in a line: Counterscreen for agonists of heterodimerization of the mu 1 (OPRM1) and delta 1 (OPRD1) opioid receptors: Luminescence-based cell-based high throughput dose response assay to identify agonists of OPRM1 homodimerization. It counts as functional.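 Note: U2OS cells expressing OPRM1 and beta-arrestin as split beta-galactosidase partners.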
A short description of test [7]: inhibition of ARNT PAS-B/TACC3 complex formation – biochemical, AlphaScreen, cherry-picked samples, confirmation (AID 651703).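 Note: His-tagged ARNT PAS-B domain paired with GST-TACC3 E629A dimer coactivator fragment; potency of inhibitors that break up the complex and lower AlphaScreen signal.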 The test is classed as functional, Homo sapiens.
For test [8], the target named is Polyadenylate-binding protein 1 (Homo sapiens, UniProt P11940). The test can be described thus: MLLE domain peptide-binding blockers, IC50 – biochemical, fluorescence polarization, FITC-PAM2 peptide, dose response (AID 602259). The settings on record: read-out: IC50_Mean. The test is classed as functional.

Calls of active or inactive are those of the source. Where only a bound is given, the exact number is not on record here.

Sequence of Mu-type opioid receptor (P35372 whole entry, the tested form may be a part): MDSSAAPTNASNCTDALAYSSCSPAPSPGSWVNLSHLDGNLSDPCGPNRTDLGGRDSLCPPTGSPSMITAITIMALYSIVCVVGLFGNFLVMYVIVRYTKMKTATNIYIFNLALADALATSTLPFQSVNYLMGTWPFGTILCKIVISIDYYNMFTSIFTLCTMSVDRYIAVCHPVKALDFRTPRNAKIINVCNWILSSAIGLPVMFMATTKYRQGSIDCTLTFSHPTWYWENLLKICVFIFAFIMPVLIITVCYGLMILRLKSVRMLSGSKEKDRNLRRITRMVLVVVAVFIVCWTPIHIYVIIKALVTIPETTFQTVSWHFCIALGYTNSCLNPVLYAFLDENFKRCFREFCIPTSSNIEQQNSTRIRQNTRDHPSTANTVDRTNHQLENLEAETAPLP
Sequence of Polyadenylate-binding protein 1 (P11940 whole entry, the tested form may be a part): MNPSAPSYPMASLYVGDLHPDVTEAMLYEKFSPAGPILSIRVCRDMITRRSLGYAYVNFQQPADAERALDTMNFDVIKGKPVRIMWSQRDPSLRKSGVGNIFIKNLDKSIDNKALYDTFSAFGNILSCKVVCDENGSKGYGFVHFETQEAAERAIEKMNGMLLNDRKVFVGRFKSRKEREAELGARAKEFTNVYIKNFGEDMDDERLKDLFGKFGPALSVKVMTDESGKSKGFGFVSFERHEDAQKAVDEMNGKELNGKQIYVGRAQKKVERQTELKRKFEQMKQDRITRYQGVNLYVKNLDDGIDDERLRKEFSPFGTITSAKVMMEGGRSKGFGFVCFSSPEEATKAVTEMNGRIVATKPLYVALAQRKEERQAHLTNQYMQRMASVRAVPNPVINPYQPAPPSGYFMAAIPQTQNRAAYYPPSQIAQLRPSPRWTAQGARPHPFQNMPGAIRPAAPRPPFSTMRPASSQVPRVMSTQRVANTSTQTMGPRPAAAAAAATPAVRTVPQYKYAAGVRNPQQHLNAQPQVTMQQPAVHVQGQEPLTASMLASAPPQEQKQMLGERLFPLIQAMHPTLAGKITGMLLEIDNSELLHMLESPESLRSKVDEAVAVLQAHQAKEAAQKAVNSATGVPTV
Sequence of Delta-type opioid receptor (P41143 whole entry): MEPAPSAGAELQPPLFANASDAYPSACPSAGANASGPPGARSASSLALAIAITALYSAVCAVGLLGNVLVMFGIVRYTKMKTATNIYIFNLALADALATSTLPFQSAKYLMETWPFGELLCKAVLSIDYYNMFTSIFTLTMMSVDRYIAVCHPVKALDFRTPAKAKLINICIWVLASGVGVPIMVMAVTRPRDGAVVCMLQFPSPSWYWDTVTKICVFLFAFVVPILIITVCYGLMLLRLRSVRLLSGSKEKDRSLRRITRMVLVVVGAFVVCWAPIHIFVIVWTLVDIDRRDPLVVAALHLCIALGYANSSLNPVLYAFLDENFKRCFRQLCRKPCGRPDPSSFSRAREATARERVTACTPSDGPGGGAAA

On to `Cc1ccc(C(=O)NNc2cc(N3CCCC3)nc(N3CCCC3)n2)cc1`, for which the figures for the IC50 in test [1], in test [2] and in test [3] were > 100 µM (inactive), 2.3 µM (active) and 7.68 µM (active), respectively.

On to `Cc1cc(/C=C2\SC(=S)N(C)C2=O)c(C)n1-c1ccc(O)cc1`, for which the EC50 in test [4] was 3.41 µM (active); in test [5], 15.1 µM (inactive); in test [6], > 92.5 µM (inactive).

Regarding `COC(=O)c1cccc(-c2ccc(C(c3c(C)n[nH]c3O)c3c(C)n[nH]c3O)o2)c1`, the AC50 in test [7] is 87.9 µM (active).

Turning to `O=C1/C(=N\c2cccc(O)c2)C(N2CCCCC2)=C(O)c2ccccc21`, the IC50 in test [8] was > 66 µM (inactive).
